According to patent publication US20100292246A1, “FORMULATIONS OF 1-(4-BENZOYL-PIPERAZIN-1-YL)-2-[4-METHOXY-7-(3-METHYL-[1,2,4]TRIAZOL-1-YL)-1H-PYRROLO[2,3-C]PYRIDIN-3-YL]-ETHANE-1,2-DIONE” (Bristol-Myers Squibb Company, priority 2004, published 2010):
≈ marks a conversion by molar mass, not a printed value.

How the values were obtained:
[1] = as disclosed in co-pending application; cited from earlier work
[2] = aqueous solubility of crystalline Compound (I); format: physicochemical; details: water (aqueous); crystalline material P-1
Source text: Compound (I) exists in several different crystalline forms: P-1, P-2, P-3, and P-4. […] The present invention relates to formulations that effectively deliver Compound (I).

| solubility [2] [µg/mL] | SMILES | solubility of Compound (I) in crystalline form [1] |
| --- | --- | --- |
|  | COc1cnc(-n2cnc(C)n2)c2[nH]cc(C(=O)C(=O)N3CCN(C(=O)c4ccccc4)CC3)c12 [Compound (I), 1-(4-benzoyl-piperazin-1-yl)-2-[4-methoxy-7-(3-methyl-[1,2,4]triazol-1-yl)-1H-pyrrolo[2,3-c]pyridin-3-yl]-ethane-1,2-dione] | typically low |
| 2.7 (≈ 5.7 µM) | COc1cnc(-n2cnc(C)n2)c2[nH]cc(C(=O)C(=O)N3CCN(C(=O)c4ccccc4)CC3)c12 [Sample P-1, 1-(4-benzoyl-piperazin-1-yl)-2-[4-methoxy-7-(3-methyl-[1,2,4]triazol-1-yl)-1H-pyrrolo[2,3-c]pyridin-3-yl]-ethane-1,2-dione] |  |
